Results: ChEMBL document CHEMBL1131888, “Synthesis, dopamine and serotonin transporter binding affinities of novel analogues of meperidine” (Bioorg Med Chem Lett, 1999)

Assays:
[1] = biological target: Sodium-dependent dopamine transporter (Rattus norvegicus, UniProt P23977); assay: Displacement of [3H]WIN-35428 from dopamine transporter (DAT)
[2] = biological target: Monoamine transporters; serotonin & dopamine (Rattus norvegicus) (UniProt P31652+P23977); assay: Relative affinity for dopamine and serotonin transporters; assay type: protein assay
Chain of Monoamine transporters; serotonin & dopamine (Rattus norvegicus) (P23977 whole entry, looked up): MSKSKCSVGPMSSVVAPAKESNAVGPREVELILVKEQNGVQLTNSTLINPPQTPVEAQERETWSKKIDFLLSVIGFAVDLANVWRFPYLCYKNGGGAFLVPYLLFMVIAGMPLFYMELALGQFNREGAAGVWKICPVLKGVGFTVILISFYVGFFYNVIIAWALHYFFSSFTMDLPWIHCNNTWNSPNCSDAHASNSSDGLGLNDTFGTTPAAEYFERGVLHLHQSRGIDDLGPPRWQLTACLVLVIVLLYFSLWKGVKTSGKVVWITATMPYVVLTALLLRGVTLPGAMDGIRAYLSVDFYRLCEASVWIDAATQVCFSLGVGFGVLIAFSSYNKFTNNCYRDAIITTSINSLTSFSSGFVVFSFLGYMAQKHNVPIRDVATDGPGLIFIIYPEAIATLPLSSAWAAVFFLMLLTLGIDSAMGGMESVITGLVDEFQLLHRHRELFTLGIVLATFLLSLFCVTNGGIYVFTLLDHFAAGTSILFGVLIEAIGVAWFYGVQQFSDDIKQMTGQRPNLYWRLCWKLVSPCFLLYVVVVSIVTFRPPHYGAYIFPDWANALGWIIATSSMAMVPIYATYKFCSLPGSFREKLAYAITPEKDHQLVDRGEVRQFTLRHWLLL
Chain of Monoamine transporters; serotonin & dopamine (Rattus norvegicus) (P31652 whole entry, looked up): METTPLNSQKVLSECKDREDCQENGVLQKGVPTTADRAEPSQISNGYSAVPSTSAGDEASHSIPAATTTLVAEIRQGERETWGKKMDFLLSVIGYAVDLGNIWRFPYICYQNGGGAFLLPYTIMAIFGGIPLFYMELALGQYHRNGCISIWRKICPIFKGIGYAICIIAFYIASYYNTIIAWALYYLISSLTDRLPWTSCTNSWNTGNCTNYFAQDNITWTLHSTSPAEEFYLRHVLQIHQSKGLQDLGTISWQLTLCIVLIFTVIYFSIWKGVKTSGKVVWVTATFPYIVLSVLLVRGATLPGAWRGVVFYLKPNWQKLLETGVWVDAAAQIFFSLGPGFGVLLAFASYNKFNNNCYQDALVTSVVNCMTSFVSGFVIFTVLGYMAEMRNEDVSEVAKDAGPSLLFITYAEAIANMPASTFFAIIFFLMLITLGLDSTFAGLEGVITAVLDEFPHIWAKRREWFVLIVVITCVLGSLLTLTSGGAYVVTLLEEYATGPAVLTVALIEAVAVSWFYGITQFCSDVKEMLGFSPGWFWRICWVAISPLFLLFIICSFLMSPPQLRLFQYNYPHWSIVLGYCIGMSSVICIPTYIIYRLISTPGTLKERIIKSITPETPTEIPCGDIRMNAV

[3] = biological target: Sodium-dependent serotonin transporter (Rattus norvegicus, UniProt P31652); assay: Displacement of [3H]paroxetine from serotonin transporter (SERT)
Chain of Sodium-dependent serotonin transporter (P31652 whole entry): as the sequence (P31652 whole entry, looked up) above

[4] = biological target: Sodium-dependent dopamine transporter (Rattus norvegicus) (UniProt P23977); assay: Inhibition of binding affinity for dopamine transporter (DAT) by competition against bound [3H]WIN-35428 tested in vitro at a dose of 100 uM
Chain of Sodium-dependent dopamine transporter (Rattus norvegicus) (P23977 whole entry): as the sequence (P23977 whole entry, looked up) above

Chain of Sodium-dependent dopamine transporter (P23977 whole entry): as the sequence (P23977 whole entry, looked up) above

SMILES | Ki [1] [nM] | Selectivity [2] | Ki [3] [nM] | inhibition [4] [%]
CCOC(=O)C1(c2ccc(F)cc2)CCN(C)CC1 | 10700 | 34.7 | 308 | –
CCOC(=O)C1(c2ccc3ccccc3c2)CCN(C)CC1 | 1140 | 158 | 7.2 | –
CN1CCC(C#N)(c2ccc(Cl)c(Cl)c2)CC1 | 2670 | 3.32 | 805 | –
CN1CCC(C#N)(c2cccc3ccccc23)CC1 | 16000 | 16.7 | 1020 | –
CCOC(=O)C1(c2ccc(Cl)c(Cl)c2)CCN(C)CC1 | 125 | 6.68 | 19 | –
CN1CCC(C#N)(c2ccc3ccccc3c2)CC1 | 2360 | 18.9 | 125 | –
Cc1ccc(C2(C#N)CCN(C)CC2)cc1 | 41800 | 3.06 | 13700 | 68
CN1CCC(C#N)(c2ccc(I)cc2)CC1 | – | 19.4 | 430 | –
CN1CCC(C#N)(c2ccc(Cl)cc2)CC1 | 22000 | 4.31 | 5110 | 79
CCOC(=O)C1(c2ccc(C)cc2)CCN(C)CC1 | 12400 | 7.69 | 1610 | 68
CCOC(=O)C1(c2ccc(I)cc2)CCN(C)CC1 | 3250 | 155 | 21 | –
CN1CCC(C#N)(c2ccc(F)cc2)CC1 | – | – | 10100 | 45
CCOC(=O)C1(c2ccc(Cl)cc2)CCN(C)CC1 | 4100 | 14.8 | 277 | 79
